Source: patent US3956274A, “New compound 6'-deoxy-'-substituted or unsubstituted amino-lividomycins and the production thereof” (Zaidan Hojin Biseibutsu Kagaku Kenkyu Kai, priority 1973, dated 1976)
≈ marks a conversion by molar mass, not a printed value.

What was measured:
[1] = tested on: kanamycin-resistant strains; details: in words; cited from earlier work
[2] = tested on: Bacillus subtilis NRRL B-558; assay: MIC, standard serial dilution method; assay type: cell-based; details: Bacillus subtilis, NRRLB558; B. subtilis NRRL B-558; nutrient agar, 37°C, 18 hours; read-out: Minimal inhibitory concentration
Method: (§1) The minimum inhibitory concentrations (mcg/ml) of 6'-amino-6'-deoxylividomycin B, 6'-deoxy-6'-methylaminolividomycin B and 6'-deoxy-6'-(2-hydroxyethylamino) lividomycin B against various microorganisms were determined according to a standard serial dilution method using nutrient agar incubation medium at 37°C, the estimation being effected after 18 hours incubation except for Mycobacterium smegmalis ATCC 607, in which the estimation being effected after 48 hours incubation. The minimum inhibitory concentrations (mcg/ml) of neomycin and lividomycin B were also determined in the same manner they also for comparison.

[3] = tested on: Escherichia coli K-12 W 677; assay: MIC, standard serial dilution method; assay type: cell-based; details: Escherichia coli, K12W677, 18 h, read-out: Minimal inhibitory concentration
Method: as §1

[4] = tested on: Proteus rettgeri GN 466; assay: MIC, standard serial dilution method; assay type: cell-based; details: Providencia rettgeri, GN466, 18 h, read-out: Minimal inhibitory concentration
Method: as §1

[5] = tested on: Escherichia coli K-12; assay: MIC, standard serial dilution method; assay type: cell-based; details: Escherichia coli, K12; E. coli K-12; nutrient agar, 37°C, 18 hours; read-out: Minimal inhibitory concentration
Method: as §1

[6] = tested on: Escherichia coli K-12 LA 290 R 64; assay: MIC, standard serial dilution method; assay type: cell-based; details: Escherichia coli; E. coli K-12 LA 290 R 64; nutrient agar, 37°C, 18 hours; read-out: Minimal inhibitory concentration
Method: as §1

[7] = tested on: Staphylococcus aureus FDA 209 P; assay: MIC, standard serial dilution method; assay type: cell-based; details: Staphylococcus aureus, FDA209; S. aureus FDA 209 P; nutrient agar, 37°C, 18 hours; read-out: Minimal inhibitory concentration
Method: as §1

[8] = tested on: Escherichia coli K-12 LA 290 R 56; assay: MIC, standard serial dilution method; assay type: cell-based; details: Escherichia coli, 18 h, read-out: Minimal inhibitory concentration
Method: as §1

[9] = tested on: Escherichia coli K-12 ML 1630; assay: MIC, standard serial dilution method; assay type: cell-based; details: Escherichia coli, K12ML1630; E. coli K-12 ML 1630; nutrient agar, 37°C, 18 hours; read-out: Minimal inhibitory concentration
Method: as §1

[10] = tested on: Pseudomonas aeruginosa No.12; assay: MIC, standard serial dilution method; assay type: cell-based; details: Pseudomonas aeruginosa; P. aeruginosa No.12; nutrient agar, 37°C, 18 hours; read-out: Minimal inhibitory concentration
Method: as §1

[11] = tested on: Klebsiella pneumoniae type 22 No. 3038; assay: MIC, standard serial dilution method; assay type: cell-based; details: Klebsiella pneumoniae, TYPE22NO.3038, 18 h, read-out: Minimal inhibitory concentration
Method: as §1

[12] = tested on: Mycobacterium smegmatis ATCC 607; assay: MIC, standard serial dilution method; assay type: cell-based; details: Mycolicibacterium smegmatis, ATCC607, nutrient agar, 37°C, 48 hours, read-out: Minimal inhibitory concentration
Method: as §1

[13] = tested on: Proteus rettgeri GN 311; assay: MIC, standard serial dilution method; assay type: cell-based; details: Providencia rettgeri, GN311, nutrient agar, 37°C, 18 hours, read-out: Minimal inhibitory concentration
Method: as §1

[14] = tested on: Escherichia coli K-12 R-5; assay: MIC, standard serial dilution method; assay type: cell-based; details: Escherichia coli, K12R5; E. coli K-12 R-5; nutrient agar, 37°C, 18 hours; read-out: Minimal inhibitory concentration
Method: as §1

[15] = tested on: Pseudomonas aeruginosa 99; assay: MIC, standard serial dilution method; assay type: cell-based; details: Pseudomonas aeruginosa; P. aeruginosa 99; nutrient agar, 37°C, 18 hours; read-out: Minimal inhibitory concentration
Method: as §1

[16] = tested on: Pseudomonas aeruginosa A 3; assay: MIC, standard serial dilution method; assay type: cell-based; details: Pseudomonas aeruginosa, A3, 18 h, read-out: Minimal inhibitory concentration
Method: as §1

[17] = tested on: Pseudomonas aeruginosa TI-13-1; assay: MIC, standard serial dilution method; assay type: cell-based; details: Pseudomonas aeruginosa, TI131; P. aeruginosa TI-13-1; nutrient agar, 37°C, 18 hours; read-out: Minimal inhibitory concentration
Method: as §1

[18] = tested on: Escherichia coli K-12 J 5 R 11-2; assay: MIC, standard serial dilution method; assay type: cell-based; details: Escherichia coli, K12J5R112; E. coli K-12 J 5 R 11-2; nutrient agar, 37°C, 18 hours; read-out: Minimal inhibitory concentration
Method: as §1

[19] = tested on: Salmonella typhosa T-63; assay: MIC, standard serial dilution method; assay type: cell-based; details: Salmonella enterica, TYPHOSA, 18 h, read-out: Minimal inhibitory concentration
Method: as §1

[20] = tested on: Escherichia coli NIHJ; assay: MIC, standard serial dilution method; assay type: cell-based; details: Escherichia coli, 18 h, read-out: Minimal inhibitory concentration
Method: as §1

[21] = tested on: Sarcina lutea PCI 1001; assay: MIC, standard serial dilution method; assay type: cell-based; details: Micrococcus luteus, PCI1001, nutrient agar, 37°C, 18 hours, read-out: Minimal inhibitory concentration
Method: as §1

[22] = tested on: Escherichia coli K-12 ML 1410 R 81; assay: MIC, standard serial dilution method; assay type: cell-based; details: Escherichia coli, 18 h, read-out: Minimal inhibitory concentration
Method: as §1

[23] = tested on: Escherichia coli K-12 ML 1410; assay: MIC, standard serial dilution method; assay type: cell-based; details: Escherichia coli, K12ML1410, 18 h, read-out: Minimal inhibitory concentration
Method: as §1

[24] = tested on: Klebsiella pneumoniae PCI 602; assay: MIC, standard serial dilution method; assay type: cell-based; details: Klebsiella pneumoniae, PCI602; K. pneumoniae PCI 602; nutrient agar, 37°C, 18 hours; read-out: Minimal inhibitory concentration
Method: as §1

[25] = tested on: Escherichia coli K-12 JR 66/W 677; assay: MIC, standard serial dilution method; assay type: cell-based; details: Escherichia coli, 18 h, read-out: Minimal inhibitory concentration
Method: as §1
(§2) In the above table, the mark * denotes the strain is a drug-resistant
(§3) strain of patient-origin.

[26] = tested on: Pseudomonas aeruginosa GN 315; assay: MIC, standard serial dilution method; assay type: cell-based; details: Pseudomonas aeruginosa, GN315; P. aeruginosa GN 315, drug-resistant strain of patient-origin; nutrient agar, 37°C, 18 hours; read-out: Minimal inhibitory concentration
Method: as §1, §2, §3

[27] = tested on: Escherichia coli K-12 LA 290 R 55; assay: MIC, standard serial dilution method; assay type: cell-based; details: Escherichia coli, 18 h, read-out: Minimal inhibitory concentration
Method: as §1, §2, §3

[28] = tested on: Escherichia coli K-12 ML 1629; assay: MIC, standard serial dilution method; assay type: cell-based; details: Escherichia coli, K12ML1629; E. coli K-12 ML 1629, drug-resistant strain of patient-origin; nutrient agar, 37°C, 18 hours; read-out: Minimal inhibitory concentration
Method: as §1, §2, §3

SMILES: NC[C@@H]1O[C@H](O[C@H]2[C@@H](O)[C@H](O[C@@H]3[C@@H](O)[C@H](N)C[C@H](N)[C@H]3O[C@H]3O[C@H](CO)[C@@H](O)C[C@H]3N)O[C@@H]2CO)[C@H](N)[C@@H](O)[C@@H]1O [LVB, lividomycin B, reference compound]
- activity against kanamycin-resistant strains [1]: active against the kanamycin-resistant bacteria
- MIC [2]: < 0.2 µg/mL
- MIC [3]: 3.12 µg/mL (≈ 5.2 µM)
- MIC [4]: 3.12 µg/mL (≈ 5.2 µM)
- MIC [5]: 1.56 µg/mL (≈ 2.6 µM)
- MIC [6]: 3.12 µg/mL (≈ 5.2 µM)
- MIC [7]: 1.56 µg/mL (≈ 2.6 µM)
- MIC [8]: 3.12 µg/mL (≈ 5.2 µM)
- MIC [9]: > 100 µg/mL
- MIC [10]: 25 µg/mL (≈ 41.7 µM)
- MIC [11]: 6.25 µg/mL (≈ 10.4 µM)
- MIC [12]: 0.39 µg/mL (≈ 0.65 µM)
- MIC [13]: 1.56 µg/mL (≈ 2.6 µM)
- MIC [14]: 1.56 µg/mL (≈ 2.6 µM)
- MIC [15]: 100 µg/mL (≈ 167 µM)
- MIC [16]: 6.25 µg/mL (≈ 10.4 µM)
- MIC [17]: > 100 µg/mL
- MIC [18]: > 100 µg/mL
- MIC [19]: 0.78 µg/mL (≈ 1.3 µM)
- MIC [20]: 3.12 µg/mL (≈ 5.2 µM)
- MIC [21]: 1.56 µg/mL (≈ 2.6 µM)
- MIC [22]: > 100 µg/mL
- MIC [23]: 6.25 µg/mL (≈ 10.4 µM)
- MIC [24]: 1.56 µg/mL (≈ 2.6 µM)
- MIC [25]: 6.25 µg/mL (≈ 10.4 µM)
- MIC [26]: 50 µg/mL (≈ 83.4 µM)
- MIC [27]: 3.12 µg/mL (≈ 5.2 µM)
- MIC [28]: > 100 µg/mL
